Reference: patent US20230406859A1, “METHOTREXATE ANALOGS AND METHODS OF USE” (The United States of America, as represented by the …, priority 2020, published 2023)
Where two headings read alike, the source gives them in different places.

Assays:
[1] = biological target: T1, human DHFR-HiBiT fusion protein (Homo sapiens, UniProt P00374); assay: DHFR-HiBiT assay (high-throughput DHFR abundance) in HBL1 cells; type: cell-based; details: for Dmax: % change in untreated cellular DHFR level (control), negative = degradation, positive = stabilization, HBL1, 24 h, read-out: efficacy (%)
T1 construct: expressed in transfected cells; host or cells: HBL1 cells retrovirally infected with pBMN-Ires-Lyt-2 carrying DHFR-HiBiT
T1 sequence (P00374 with tags, fused parts or gaps): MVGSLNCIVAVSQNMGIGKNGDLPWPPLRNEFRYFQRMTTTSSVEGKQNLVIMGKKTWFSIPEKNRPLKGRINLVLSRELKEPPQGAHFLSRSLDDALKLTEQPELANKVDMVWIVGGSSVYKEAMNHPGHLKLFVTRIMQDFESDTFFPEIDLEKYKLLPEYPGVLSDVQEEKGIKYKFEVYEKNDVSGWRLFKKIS
Excerpt: The human DHFR-HiBiT construct was synthetized (Bio Basic) and cloned into the retroviral vector pBMN-Ires-Lyt-2 (provided by G. Nolan, Stanford University, Stanford, CA) which expresses the coding region of mouse CD8a (Lyt-2) using the restriction sites BamHI/XhoI. All constructs were sequenced to validate authenticity. Infected cells were positively selected based on murine CD8a expression using magnetic beads (Miltenyi Biotech).
Cell culture: Human embryonic kidney HEK293T cells were maintained in DMEM (Gibco) supplemented with 10% fetal bovine serum (Hyclone), 2 mmol/L 1-glutamine, HEPES (Gibco) and 100 U/mL penicillin/streptomycin (Invitrogen). The lymphoma cell line HBL1 were maintained in RPMI (Life Technology) supplemented with 5% fetal bovine serum (Hyclone), 2 mmol/L L-glutamine, HEPES (Gibco) and 100 U/mL penicillin/streptomycin (Invitrogen).
Transfection and retroviral infections: Transfections were performed using Lipofectamine 2000 (Invitrogen) according to the manufacturer's protocol. For retroviral infections, viruses were produced in HEK293T cells and used to infect HBL1 cell line. […] Supernatants containing the retrovirus were collected and filtered at 48- and 72-hours post-transfection. HBL1 cells were centrifuged and then resuspended with the retroviral supernatant with 8 μg/ml of polybrene. The cells were spin-infected twice on consecutive days at 2,500 rpm, at RT, for 90 minutes.
Lytic HiBiT Detection: Cells were plated in solid white 1536-well tissue culture plates (Greiner), at the concentration of 2000 cells/well. After treatment, an equal volume of Nano-Glo HiBiT Lytic Reagent (Promega) containing the substrate furimazine and Large BiT (LgBiT) was added to the cells according to the manufacturer's protocol. Cells were incubated for 10 min at room temperature, and luminescence was measured using a Perkin Elmer ViewLux microplate imager with 30 seconds of exposure time.

HBL1 cell line = assay: CellTiter-Glo cell viability (cytotox), HBL1 cell line, 72 hours; type: cell-based
Procedure: (§1) CellTiter-Glo viability assays: Five μL of cells (2500 cells) from the 12-well plate culture were plated into white 1536-well plates (Greiner, Monroe, NC, 789173-F) in 6 replicates. CellTiter-Glo Luminescent Cell Viability Assay (CTG) (Promega, G7572), 2.5 μL/well reagent was added with a BioRAPTR FRD (Beckman Coulter, Sykesville, MD), plates were incubated in the dark at ambient temperature for 10 min, and luminescence measured with a ViewLux 1430 Ultra HTS (Perkin Elmer, Waltham, MA).

[2] = system: MTX-resistant HBL1 cell line; type: cell-based
Procedure: as §1

HBL1 cells = assay: CellTiter-Glo assay of cellular ATP levels in HBL1 cells (16 h); type: cell-based
Procedure: (§2) Cell Culture Methods: Cells (HBL1, immortalized fibroblasts from a healthy donor, or 293T) were seeded at the numbers indicated in a 12-well plate in 500 ul. […] Human embryonic kidney HEK293T cells and immortalized fibroblasts were maintained in DMEM (Gibco) supplemented with 10% fetal bovine serum (Hyclone), 2 mmol/L L-glutamine, Hepes (Gibco), and 100 U/mL penicillin/streptomycin (Invitrogen). The lymphoma cell line HBL1 was maintained in RPMI (Life Technology) supplemented with 5% fetal bovine serum (Hyclone), 2 mmol/L 1-glutamine, Hepes (Gibco), and 100 U/mL penicillin/streptomycin (Invitrogen). Cells were cultured in incubators maintained at 37° C., with 5% CO2 and 85% humidity.
as §1, with “Cell-Titer-Glo viability” for “CellTiter-Glo viability”

293T cells = assay: CellTiter-Glo ATP levels in 293T cells; type: cell-based, human
Procedure: as §2
as §1, with “Cell-Titer-Glo viability” for “CellTiter-Glo viability”

fibroblasts = assay: CellTiter-Glo ATP levels in fibroblasts; type: cell-based
Procedure: as §2
as §1, with “Cell-Titer-Glo viability” for “CellTiter-Glo viability”

DHFR [3] = biological target: T2, DHFR (Homo sapiens, UniProt P00374); type: cell-based; details: HBL1 cells, Western blot
T2 construct: Western blot detection of DHFR levels after treatment of HBL1 cells for 16 h; endogenous in cells; host or cells: HBL1 lymphoma cell line
T2 sequence (P00374 1-187): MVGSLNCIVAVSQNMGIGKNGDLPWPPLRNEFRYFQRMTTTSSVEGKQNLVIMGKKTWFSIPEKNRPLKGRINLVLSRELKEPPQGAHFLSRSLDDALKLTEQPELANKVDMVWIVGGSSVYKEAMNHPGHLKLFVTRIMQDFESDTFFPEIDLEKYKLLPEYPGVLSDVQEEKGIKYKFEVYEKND
Excerpt: Human embryonic kidney HEK293T cells and immortalized fibroblasts were maintained in DMEM (Gibco) supplemented with 10% fetal bovine serum (Hyclone), 2 mmol/L L-glutamine, Hepes (Gibco), and 100 U/mL penicillin/streptomycin (Invitrogen). The lymphoma cell line HBL1 was maintained in RPMI (Life Technology) supplemented with 5% fetal bovine serum (Hyclone), 2 mmol/L 1-glutamine, Hepes (Gibco), and 100 U/mL penicillin/streptomycin (Invitrogen).
Western blotting: Cells at confluence from 12-well plate treatments were washed with PBS and lysed in 75 μL/well NP40 lysis buffer (Cell Signaling), subjected to agitation and centrifugation. Approximately 100 μg of total protein was used per analysis. […] Blots were first incubated with 1:2000 dilution of anti-human DHFR antibody (Abcam, ab124814, host rabbit) for 16 h at 4° C. with shaking, washed 3× with TBS-T and incubated with 1:2000 dilution of anti-human β-actin primary antibody (Cell Signaling, host mouse) for 1 h at ambient temperature with shaking. Blots were then washed 3× with TBS-T and incubated with 1:5000 HRP secondary antibody (Novex, anti-Rabbit IgG raised in Goat, 1 mg/ml) for 1 h at ambient temperature, then washed with 3×TBS-T and developed with Pierce ECL Dura reagent for 5 min. Immunoreactive bands were imaged on a ChemiDoc Imaging System (Bio-Rad) with 20 s chemiluminescence exposure. The molecular weight marker ladder was imaged with colorimetric auto-exposure, and both images merged.

[4] = biological target: T3, thymidylate synthase (TS) (Homo sapiens, UniProt P04818); assay: Western blot of thymidylate synthase levels in fibroblasts; type: cell-based; details: 16 h
T3 sequence (P04818 2-313 limits assumed): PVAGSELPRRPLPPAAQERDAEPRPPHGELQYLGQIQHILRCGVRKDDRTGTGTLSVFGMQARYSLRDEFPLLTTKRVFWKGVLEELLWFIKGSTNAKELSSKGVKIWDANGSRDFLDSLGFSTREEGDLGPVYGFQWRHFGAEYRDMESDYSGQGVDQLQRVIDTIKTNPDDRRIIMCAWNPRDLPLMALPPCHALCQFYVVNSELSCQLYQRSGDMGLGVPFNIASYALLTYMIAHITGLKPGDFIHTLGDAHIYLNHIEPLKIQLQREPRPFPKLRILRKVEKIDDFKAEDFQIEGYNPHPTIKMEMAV

[5] = biological target: T3, thymidylate synthase (TS); assay: Western blot of thymidylate synthase levels in 293T cells; type: cell-based; details: 16 h
[6] = biological target: T3, thymidylate synthase (TS); assay: Western blot of thymidylate synthase levels in HBL1 cells; type: cell-based; design: Western blot detection of folate-cofactor dependent enzyme levels after treatment of HBL1 cells; endogenous in cells; host or cells: HBL1 lymphoma cell line; details: 1 μM, 16 h
DHFR [7] = biological target: T2, DHFR; assay: Western blot detection of DHFR levels in fibroblasts; type: cell-based; details: 16 h at 1 μM
Procedure: as §2
(§3) Western blotting: Cells at confluence from 12-well plate treatments were washed with PBS and lysed in 75 μL/well NP40 lysis buffer (Cell Signaling), subjected to agitation and centrifugation. Approximately 100 μg of total protein was used per analysis. Proteins were sized on a NuPAGE 12% Bis-Tris Gel, 1.0 mm×10 wells, proteins transferred to 0.2 μm nitrocellulose membrane for 60 min followed by blocking with 5% t milk in TBS-T for 1 h at ambient temperature with gentle shaking. […]

DHFR [8] = biological target: T2, DHFR; assay: Western blot detection of DHFR levels in 293T cells; type: cell-based; details: 16 h at 1 μM
Procedure: as §2, §3

[9] = HBL1 cell line, CellTiter-Glo, unit inferred

Structure (SMILES)	Dmax [1] [%]	effect on DHFR protein levels (DHFR [3])	effect on TS protein level [4]	effect on TS protein level [5]	effect on TS protein level [6]	effect on DHFR protein levels (DHFR [7])	IC50 (HBL1 cell line; [9]) [µM]	cellular toxicity in MTX-resistant HBL1 cell line [2]	other results
CN(Cc1cnc2nc(N)nc(N)c2n1)c1ccc(C(=O)NC(CC(F)C(=O)O)C(=O)O)cc1 (stereo not drawn) [FMTX, 2-(4-(((2,4-diaminopteridin-6-yl)methyl)(methyl)amino)benzamido)-4-fluoropentanedioic acid, reference compound]	-115	–	–	–	–	–	1.1	greatly decreased	DC50 ([1]; HBL1 cells expressing DHFR-HiBiT, 24 h, degradation or stabilization potency, average of N = 2-5, read-out: Ave EC50): 0.28 µM
CN(Cc1cnc2nc(N)nc(N)c2n1)c1ccc(C(=O)N[C@@H](CCC(=O)O)C(=O)O)cc1 [MTX, (4-(((2,4-diaminopteridin-6-yl)methyl)(methyl)amino)benzoyl)-L-glutamic acid, reference compound]	–	–	–	–	–	–	–	greatly decreased	effect on cellular ATP levels (acute cellular toxicity) (HBL1 cells): significantly depleted ATP levels; IC50 (HBL1 cells; HBL1, 16 h, read-out: IC50 for cellular ATP-depletion): ~0.2 µM; effect on ATP levels (293T cells): ATP-depleting properties; effect on ATP levels (fibroblasts): ATP-depleting properties; IC50 (HBL1 cell line): 0.0571 µM
Cc1ncsc1-c1ccc(CNC(=O)C2C[C@@H](O)CN2C(=O)C(NC(=O)COCCOCCOCCOCCNC(=O)CC[C@H](NC(=O)c2ccc(N(C)Cc3cnc4nc(N)nc(N)c4n3)cc2)C(=O)O)C(C)(C)C)cc1 (stereo partly drawn) [NCGC00685964, (23S)-23-(4-(((2,4-diaminopteridin-6-yl)methyl)(methyl)amino)benzamido)-3-((4R)-4-hydroxy-2-((4-(4-methylthiazol-5-yl)benzyl)carbamoyl)pyrrolidine-1-carbonyl)-2,2-dimethyl-5,20-dioxo-7,10,13,16-tetraoxa-4,19-diazatetracosan-24-oic acid]	–	no alterations in DHFR protein levels	–	–	–	–	21.5	–	–

Continued, in another order:

Dmax [1] [%]	effect on DHFR protein levels (DHFR [3])	effect on TS protein level [4]	effect on TS protein level [5]	effect on TS protein level [6]	effect on DHFR protein levels (DHFR [7])	Structure (SMILES)	IC50 (HBL1 cell line; [9]) [µM]	cellular toxicity in MTX-resistant HBL1 cell line [2]	other results
65	robust DHFR depletion	low but detectable increases in TS	no significant change in TS levels	slight increase in TS	–	CN(Cc1cnc2nc(N)nc(N)c2n1)c1ccc(C(=O)N[C@@H](CCC(=O)NCCCCCCCCNc2cccc3c2C(=O)N(C2CCC(=O)NC2=O)C3=O)C(=O)O)cc1 (stereo partly drawn) [NCGC00685928, N2-(4-(((2,4-diaminopteridin-6-yl)methyl)(methyl)amino)benzoyl)-N5-(8-((2-(2,6-dioxopiperidin-3-yl)-1,3-dioxoisoindolin-4-yl)amino)octyl)-L-glutamine]	23.7	–	–
–	essentially inactive	low but detectable increases in TS	no significant change in TS levels	slight increase in TS	significant degradation of DHFR	CN(Cc1cnc2nc(N)nc(N)c2n1)c1ccc(C(=O)N[C@@H](CCC(=O)NCCCNc2cccc3c2C(=O)N(C2CCC(=O)NC2=O)C3=O)C(=O)O)cc1 (stereo partly drawn) [NCGC00685938, N2-(4-(((2,4-diaminopteridin-6-yl)methyl)(methyl)amino)benzoyl)-N5-(3-((2-(2,6-dioxopiperidin-3-yl)-1,3-dioxoisoindolin-4-yl)amino)propyl)-L-glutamine]	1.66	–	effect on DHFR protein levels (DHFR [8]): essentially inactive
–	no alterations in DHFR protein levels	–	–	–	MTX-like stabilization of DHFR	Cc1ncsc1-c1ccc(CNC(=O)C2C[C@@H](O)CN2C(=O)C(NC(=O)COCCOCCNC(=O)CC[C@H](NC(=O)c2ccc(N(C)Cc3cnc4nc(N)nc(N)c4n3)cc2)C(=O)O)C(C)(C)C)cc1 (stereo partly drawn) [NCGC00685995, (17S)-17-(4-(((2,4-diaminopteridin-6-yl)methyl)(methyl)amino)benzamido)-3-((4R)-4-hydroxy-2-((4-(4-methylthiazol-5-yl)benzyl)carbamoyl)pyrrolidine-1-carbonyl)-2,2-dimethyl-5,14-dioxo-7,10-dioxa-4,13-diazaoctadecan-18-oic acid]	20.2	–	effect on ATP levels (293T cells; 293T cells, CellTiter-Glo): not observed; effect on ATP levels (fibroblasts; fibroblasts, CellTiter-Glo): not observed
